Measured values reported in patent US8779158B2, “Trisubstituted pyrazoles as acetylcholine receptor modulators” (Janssen Pharmaceutica NV, priority 2008, dated 2014).

Legend:
hα7-wt nAChR = target: T1, hα7-wt nAChR (Homo sapiens, UniProt P36544); assay: Ca2+ flux imaging (FDSS) (Protocol B), potentiation of the choline response; format: cell-based; conditions: Ca2+ assay as described in D.1; for EC50: "<5" = activity did not reach a top plateau at maximal concentration; for Emax: read-out: % Efficacy
T1 construct: expressed in transfected cells
Method: Ca^2+ Flux Imaging (FDSS) (Protocol B)
• Hanks buffered saline solution (HBSS, Invitrogen, Belgium), supplemented with 10 mM HEPES (Invitrogen, Belgium), CaCl2 to a final concentration of 5 mM, 0.1% Bovine serum albumin (Sigma-Aldrich NV, Belgium). b) Calcium-Sensitive Dye—Fluo-4AM • Fluo-4AM (Molecular Probes, USA) was dissolved in DMSO containing 10% Pluronic acid (Molecular Probes, USA) to give a stock solution which was diluted in assay buffer supplemented with 5 mM probenicid (Sigma, Aldrich NV, Belgium) to give a final concentration of 2 μM. c) 384-Well Plates • Black 384 well plate black/clear plates, PDL pre-coated (Corning, Incorporated, USA) d) Calcium Flux Measurement • A Functional drug screening system (FDSS, Hamamatsu) was used to measure intracellular free-calcium flux signals. Method
Monolayers of hα7-wt nAChR-expressing cells were grown in multi-well plates, in particular black-sided, transparent bottomed 384 well plates coated with poly-D-lysine for 24 hours prior to loading with a fluorescent calcium indicator, in a particular embodiment loading with fluo-4AM for up to 120 minutes.
PAM activity was detected in real time by applying the compounds to be tested to the loaded cells along with a α7 nicotinic receptor agonist during constant monitoring of cellular fluorescence in a FDSS. Compounds giving peak fluorescent responses greater than the response due to agonist alone, were considered to be α7 nAChR PAM's. In a particular embodiment, the α7 nicotinic receptor agonist was choline, a more particular embodiment choline applied at a sub-maximal concentration of 100 μM. In a further setting of the present invention the compounds to be tested were applied prior to the α7 nicotinic receptor agonist, in a particular embodiment up to 10 minutes prior to the agonist.
A control response to choline was calculated on each plate from the difference in peak in fluorescence in wells receiving either choline or assay buffer alone. Compounds of the present invention were tested at a concentration range from 0.01 μM to 30 μM. Compounds were considered to have an interesting activity when they potentiated the choline signal at least with 200% when tested at a concentration of 30 μM (the efficacy of 100 μM choline was defined as 100% in the absence of a PAM). An EC50 (or pEC50) was determined as a concentration relating to half the maximal effect, when a clear sigmoidal curve with top plateau was obtained.

[1] = target: T2, hα7-wt nAChR-expressing GH4C1 cells (Homo sapiens, UniProt P36544); assay: Patch-clamp current recording (whole-cell voltage clamp), potentiation of the choline current and PAM type; format: cell-based; set-up: key: Type 0 compounds minimally enhance the effect size of the current elicited by 1 mM choline.; Type 1 compounds enhance the effect size of the current elicited by 1 mM choline but minimally alter the kinetics of the receptor.; Type 2 compounds enhance the effect size of the current elicited by 1 mM choline while reducing the rate and/or the extent of desensitization.; Type 3 compounds enhance the effect size of the current elicited by 1 mM choline. When tested at higher concentrations up to 10 μM they completely inhibit desensitization, in particular a 1 mM choline application of 250 milliseconds.; Type 4 compounds allow for an initial desensitization of the receptor followed by a re-opening of the receptor during agonist application; conditions: 1 mM choline
T2 construct: expressed in transfected cells
Method: The compounds of the present invention are classified as type 1-4, based on qualitative kinetic properties, as determined by whole-cell voltage-clamp recordings. This classification is based on the effect of an α7 PAM compound, as described hereinbefore, on the signal elicited by an agonist application. In particular, said agonist is choline at a concentration of 1 mM. In a preferred experimental setting, said α7 PAM compound and choline are simultaneously applied to the cell, as described hereinafter. Desensitization is defined as the closure of the receptor upon activation during the application of the agonist in whole-cell voltage-clamp electrophysiology measurements seen as the reduction of the […] current after initial activation by the agonist.
The definition of the PAM types 1-4 is described hereinafter: • Type 0 compounds minimally enhance the effect size of the current elicited by 1 mM choline. • Type 1 compounds enhance the effect size of the current elicited by 1 mM choline but minimally alter the kinetics of the receptor. In particular, the rate and the extent of desensitization, elicited by the agonist, is not affected. The compound-modulated response to 1 mM choline, therefore, is a close to linear scaling of the 1 mM choline response in absence of the α7 PAM compound. • Type 2 compounds enhance the effect size of the current elicited by 1 mM choline while reducing the rate and/or the extent of desensitization. • Type 3 compounds enhance the effect size of the current elicited by 1 mM choline. […] At low-potency concentrations of the α7 PAM compound, the agonist-induced activation, which is followed by desensitization, can still be separated from the compound-induced re-opening as an initial inward current-maximum. At higher potency concentrations of the α7 PAM compound, the re-opening occurs faster than the closure due to desensitization so that the initial current-maximum disappears.
A compound was considered to have interesting PAM-like activity when the potentiation of the peak current was at least 200% compared to the control choline response (=100%). Such compounds are classified as belonging to a particular PAM type in the Experimental Part. Compounds not meeting the condition are not classified as belonging to a particular PAM-type.
The compounds also have a potentiating effect on the response to choline when measured by whole-cell patch clamp electrophysiology in GH4C1 cells stably over-expressing the human wild-type α7 receptor.
Patch-Clamp Current Recording
Patch-clamp recording from mammalian cells has provided a powerful means of assessing the function of membrane-bound proteins thought to be subunits of ligand-gated ion channels. Activation of such proteins by endogenous or exogenous ligands cause opening of a pore associated with the receptor through which ions flow down their electrochemical gradient. In the case of the hα7-wt nAChR-expressing GH4C1 recombinant cell line the preferential permeability to calcium of this receptor means that calcium flows into the cell upon activation by ACh, choline and other nicotinic ligands giving rise to a calcium current. Since this receptor rapidly desensitizes in the presence of agonist it is important an application system is used which is capable of very rapid switching of solutions (<100 ms) to prevent partial or full desensitisation of receptor responses coincident with the time of agonist application. Consequently, a second convenient technique to assess the enhancement of nicotinic efficacy is patch-clamp recording from hα7-wt nAChR-expressing GH4C1 cells coupled with a rapid-application system.
• The external recording solution consisted of 152 mM NaCl, 5 mM KCl, 1 mM MgCl2, 1 mM Calcium, 10 mM HEPES; pH 7.3. […]

T2 sequence (P36544 23-502): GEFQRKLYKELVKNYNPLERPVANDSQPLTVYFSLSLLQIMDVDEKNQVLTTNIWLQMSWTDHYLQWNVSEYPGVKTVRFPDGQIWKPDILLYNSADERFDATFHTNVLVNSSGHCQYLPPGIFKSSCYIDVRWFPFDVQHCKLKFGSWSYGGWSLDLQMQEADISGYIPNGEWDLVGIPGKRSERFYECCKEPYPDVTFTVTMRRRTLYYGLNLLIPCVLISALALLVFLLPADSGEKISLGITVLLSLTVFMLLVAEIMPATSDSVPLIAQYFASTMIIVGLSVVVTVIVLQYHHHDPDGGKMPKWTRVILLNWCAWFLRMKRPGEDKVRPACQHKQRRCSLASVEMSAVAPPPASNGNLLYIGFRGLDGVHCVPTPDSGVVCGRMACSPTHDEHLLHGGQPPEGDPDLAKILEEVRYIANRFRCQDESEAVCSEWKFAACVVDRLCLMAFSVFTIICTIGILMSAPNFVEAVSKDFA
T1 sequence (P36544 23-502): as above

## Cc1cnccc1-c1cc(Nc2ccc3c(c2)OC(F)(F)O3)nn1CCC(=O)N(C)C [compound 90]
hα7-wt nAChR
  EC50: 912 nM
[1]
  PAM type: 4

## CC[C@H](O)Cn1nc(Nc2ccc(F)c(F)c2F)cc1-c1ccnc(COC)c1 [compound 121]
hα7-wt nAChR
  EC50: 1070 nM
[1]
  PAM type: 2

## CC[C@H](O)Cn1nc(Nc2cccc(Cl)c2)cc1-c1cc(C)nc(C)c1 [compound 58]
hα7-wt nAChR
  EC50: 759 nM
[1]
  PAM type: 1

## CCNC(=O)Cn1nc(Nc2cc(Cl)cc(OC)c2)cc1-c1ccnc(C)c1 [compound 108]
hα7-wt nAChR
  EC50: 1860 nM
[1]
  PAM type: 2

## Cc1cc(-c2cc(Nc3cccc(Cl)c3)nn2CCC(=O)N(C)C)ccn1 [compound 146]
hα7-wt nAChR
  EC50: 447 nM
[1]
  PAM type: 2

## C[C@H](O)Cn1nc(Nc2cc(F)c(F)c(F)c2)cc1-c1ccc2c(c1)OCCO2 [compound 85]
hα7-wt nAChR
  EC50: 1100 nM
  Emax: 400%
[1]
  PAM type: 0

## CCNc1cc(-c2cc(Nc3ccc(F)c(F)c3F)nn2C[C@@H](O)CC)ccn1 [compound 135]
hα7-wt nAChR
  EC50: 759 nM
[1]
  PAM type: 1

## Cc1cc(-c2cc(Nc3cc(F)c(F)c(F)c3)nn2CCC(=O)N(C)C)ccn1 [compound 142]
hα7-wt nAChR
  EC50: 617 nM
  Emax: 816%
[1]
  PAM type: 2

## Cc1cc(-c2cc(Nc3ccc(F)c(F)c3)nn2CCC(=O)N(C)C)ccn1 [compound 40]
hα7-wt nAChR
  EC50: 1000 nM
[1]
  PAM type: 2

## CC[C@H](O)Cn1nc(Nc2cc(Cl)cc(OC)c2)cc1-c1ccnc(C)c1 [compound 122]
hα7-wt nAChR
  EC50: 1020 nM
[1]
  PAM type: 1

## COc1ccc(-c2cc(Nc3ccc(F)c(F)c3)nn2CCC(=O)N(C)C)cc1 [compound 102]
hα7-wt nAChR
  EC50: 77.6 nM
[1]
  PAM type: 4

## CNC(=O)Cn1nc(Nc2ccc3c(c2)OC(F)(F)O3)cc1-c1ccncc1 [compound 86]
hα7-wt nAChR
  EC50: 2290 nM
[1]
  PAM type: 3

## CCNC(=O)Cn1nc(Nc2cc(OC)cc(C(F)(F)F)c2)cc1-c1ccnc(C)c1C [compound 51]
hα7-wt nAChR
  EC50: 3310 nM
[1]
  PAM type: 2

## Cc1cc(-c2cc(Nc3cccc(Cl)c3)nn2CCC(=O)N(C)C)cc(C)n1 [compound 56]
hα7-wt nAChR
  EC50: 525 nM
[1]
  PAM type: 2

## CCNC(=O)Cn1nc(Nc2ccc3c(c2)OC(F)(F)O3)cc1-c1ccncc1C [compound 91]
hα7-wt nAChR
  EC50: 2630 nM
[1]
  PAM type: 2

## CNC(=O)Cn1nc(Nc2ccc(F)c(F)c2)cc1-c1cc(C)nc(C)c1 [compound 55]
hα7-wt nAChR
  EC50: 1700 nM
[1]
  PAM type: 2

## Cc1cc(-c2cc(Nc3ccc(F)c(F)c3F)nn2CC(=O)NCC2CC2)ccn1 [compound 164]
hα7-wt nAChR
  EC50: 309 nM
  Emax: 482%
[1]
  PAM type: 2

## CNC(=O)Cn1nc(Nc2cccc(C(F)(F)F)c2)cc1-c1cc(C)nc(C)c1 [compound 117]
hα7-wt nAChR
  EC50: 1480 nM
  Emax: 835%

## Cc1cc(-c2cc(Nc3cccc(C(F)(F)F)c3)nn2CCC(=O)N(C)C)cc(C)n1 [compound 178]
hα7-wt nAChR
  EC50: 550 nM
  Emax: 627%

## CCNC(=O)Cn1nc(Nc2cccc(OC(F)(F)F)c2)cc1-c1ccc2c(c1)OCCO2 [compound 80]
hα7-wt nAChR
  EC50: 204 nM

## CNC(=O)Cn1nc(Nc2ccc(F)c(F)c2)cc1-c1ccnc(NC)c1 [compound 61]
hα7-wt nAChR
  EC50: > 10000 nM

## CCNC(=O)Cn1nc(Nc2cc(F)c(F)c(F)c2)cc1-c1ccc2c(c1)OCCO2 [compound 78]
hα7-wt nAChR
  EC50: 302 nM

## Cc1cc(-c2cc(Nc3cccc(OC(F)(F)F)c3)nn2CC(=O)NC2CC2)cc(C)n1 [compound 147]
hα7-wt nAChR
  EC50: 603 nM
  Emax: 643%

## Cc1cc(-c2cc(Nc3ccc(F)c(F)c3F)nn2CC(=O)NC2CC2)cc(C)n1 [compound 156]
hα7-wt nAChR
  EC50: 380 nM
  Emax: 975%

## Cc1cc(-c2cc(Nc3ccc(F)c(C(F)(F)F)c3)nn2CCC(=O)N(C)C)cc(C)n1 [compound 161]
hα7-wt nAChR
  EC50: 240 nM
  Emax: 737%

## Cc1ccnc(-c2cc(Nc3ccc(F)c(C(F)(F)F)c3)nn2C[C@H](C)O)c1 [compound 25]
hα7-wt nAChR
  EC50: 933 nM
  Emax: 500%

## Cc1cc(-c2cc(Nc3ccc(F)c(F)c3)nn2CCC(=O)N(C)C)cc(Cl)n1 [compound 60]
hα7-wt nAChR
  EC50: 501 nM

## Cc1cc(-c2cc(Nc3ccc(F)c(F)c3F)nn2CC(=O)NC2CCC2)cc(C)n1 [compound 182]
hα7-wt nAChR
  EC50: 182 nM

## Cc1cc(-c2cc(Nc3cc(F)c(F)c(F)c3)nn2CC(=O)NC2CC2)cc(C)n1 [compound 172]
hα7-wt nAChR
  EC50: 186 nM
  Emax: 393%

## Cc1cc(-c2cc(Nc3ccc(F)c(C(F)(F)F)c3)nn2C[C@H](C)O)cc(N(C)C)n1 [compound 69]
hα7-wt nAChR
  EC50: 794 nM
  Emax: 400%

## CCNC(=O)Cn1nc(Nc2cccc(C(F)(F)F)c2)cc1-c1ccc2c(c1)OCCO2 [compound 79]
hα7-wt nAChR
  EC50: 219 nM

## CCNC(=O)Cn1nc(Nc2ccc(F)c(C(F)(F)F)c2)cc1-c1ccc2c(c1)OCCO2 [compound 81]
hα7-wt nAChR
  EC50: 214 nM

## Cc1cc(-c2cc(Nc3ccc(F)c(F)c3)nn2CC(=O)NC2CCC2)cc(C)n1 [compound 171]
hα7-wt nAChR
  EC50: 148 nM
  Emax: 507%

## COc1cc(Nc2cc(-c3cc(C)nc(C)c3)n(CC(=O)NC3CCC3)n2)cc(C(F)(F)F)c1 [compound 162]
hα7-wt nAChR
  EC50: 437 nM
  Emax: 750%

## Cc1cc(-c2cc(Nc3cccc(Cl)c3F)nn2CC(=O)NC2CCC2)cc(C)n1 [compound 175]
hα7-wt nAChR
  EC50: 126 nM
  Emax: 462%

## CCNC(=O)Cn1nc(Nc2cccc(OC(F)(F)F)c2)cc1-c1cccnc1 [compound 17]
hα7-wt nAChR
  EC50: > 10000 nM

## CC[C@H](O)Cn1nc(Nc2ccc(F)c(C(F)(F)F)c2)cc1-c1ccc(C)nc1 [compound 29]
hα7-wt nAChR
  EC50: 1120 nM
  Emax: 500%

## Cc1cc(-c2cc(Nc3cc(F)c(F)c(F)c3)nn2CC(=O)NC2CCC2)cc(C)n1 [compound 179]
hα7-wt nAChR
  EC50: 115 nM
  Emax: 793%

## Cc1cc(-c2cc(Nc3ccc(F)c(F)c3F)nn2CC(=O)NC2CC2)ccn1 [compound 116]
hα7-wt nAChR
  EC50: 1230 nM
  Emax: 596%

## CCNC(=O)Cn1nc(Nc2ccc3c(c2)OC(F)(F)O3)cc1-c1ccc2c(c1)OCCO2 [compound 98]
hα7-wt nAChR
  EC50: 324 nM
